From US5859007A, “CCK or gastrin modulating benzo [b][1,4] diazepines derivatives” (Glaxo Wellcome Inc., priority 1994, dated 1999)

The compounds below were run on isolated guinea pig gallbladder (assay: Functional activity in isolated guinea pig gallbladder preparation). Conditions: 1 × 10^-6 M test compound; expressed as % CCK-induced maximal response.
Type: cell-based
Protocol: 3. GUINEA PIG GALL BLADDER ASSAY
Gallbladders are removed from guinea pigs sacrificed by cervical dislocation. The isolated gallbladders are cleaned of adherent connective tissue and cut into two rings from each animal (2-4 mm in length). The rings are subsequently suspended in organ chambers containing a physiological salt solution (118.4 mM NaCl, 4.7 mM KCl, 1.2 mM MgSO4, 2.5 mM CaCl2, 1.2 mM KH2 […], 25 mM NaHCO3, 11.1 mM dextrose). The bathing solution is maintained at 37° C. and aerated with 95% O2 /5% CO2. Tissues are connected via gold chains and stainless steel mounting wires to isometric force displacement transducers (Grass, Model FT03 D). Responses are then recorded on a polygraph (Grass, Model 7E).
Rings are gradually stretched (over a 120 min. period) to a basal resting tension of 1 gm which is maintained throughout the experiment. During the basal tension adjustment period, the rings are exposed to acetylcholine (10^-6 M) four times to verify tissue contractility. The tissues are then exposed to a submaximal dose of sulfated CCK-8 (Sigma, 3×10^-9 M). After obtaining a stable response, the tissues are washed out 3 times rapidly and every 5 to 10 minutes for 1 hour to reestablish a stable baseline.
Compounds are dissolved in dimethylsulfoxide ([…]) followed by a concentration-response curve to sulfated CCK-8 (10^-10 to 10^-6 M) in the presence of the highest dose of the test compound. As a final test, ACH (10 mM) is added to induce maximal contraction. A minimum of three determinations of activity are made for each test compound.

`COc1ccc(N(C(=O)CN2C(=O)C(CC(=O)Nc3ccccc3)C(=O)N(c3ccccc3)c3ccccc32)C(C)C)cc1` (centres unmarked) [Example 39, 2-(2,4-dioxo-5-phenyl-3-phenylcarbamoylmethyl-2,3,4,5-tetrahydro-benzo[b][1,4]diazepin-1-yl)-N-isopropyl-N-(4-methoxy-phenyl)-acetamide] was tested, and the “%Contraction (1 × 10^-6 M)” value was 57%.

Same assay, conditions: Cavia porcellus, 1 × 10^-6 M test compound; expressed as % CCK-induced maximal response; read-out: %Contraction (1 × 10^-6 M)

Point of comparison: `COc1ccc(N(C(=O)CN2C(=O)C(C)(Cc3ccc4ccccc4c3)C(=O)N(c3ccccc3)c3ccccc32)C(C)C)cc1` (centres unmarked) [Example 38, N-Isopropyl-N-(4-methoxy-phenyl)-2-(3-methyl-3-naphthalen-2-ylmethyl-2,4-dioxo-5-phenyl-2,3,4,5-tetrahydro-benzo[b][1,4]diazepin-1-yl) acetamide], activation at 1 µM 30%. Against it:
- COc1ccc(N(C(=O)CN2C(=O)C(Cc3c[nH]c4ccccc34)C(=O)N(c3ccccc3)c3ccccc32)C(C)C)cc1 (centres unmarked) [Example 22, 2-[3-(1H-indol-3-ylmethyl)-2,4-dioxo-5-phenyl-2,3,4,5-tetrahydro-benzo[b][1,4]diazepin-1-yl]-N-isopropyl-N-(4-methoxy-phenyl) acetamide] — higher, 61%
- COc1ccc(N(C(=O)CN2C(=O)C(C)(CC(=O)Nc3cccc(F)c3)C(=O)N(c3ccccc3)c3ccccc32)C(C)C)cc1 (centres unmarked) [Example 25, N-Isopropyl-N-(4-methoxy-phenyl)-2-[3-(3-fluoro-phenylcarbamoylmethyl)-3-methyl-2,4-dioxo-5-phenyl-2,3,4,5-tetrahydro-benzo[b][1,4]diazepin-1-yl]acetamide] — higher, 88%
- COCC1(CC(=O)Nc2ccccc2)C(=O)N(CC(=O)N(c2ccc(OC)cc2)C(C)C)c2ccccc2N(c2ccccc2)C1=O (centres unmarked) [Example 26, N-Isopropyl-2-(3-methoxymethyl-2,4-dioxo-5-phenyl-3-phenylcarbamoylmethyl-2,3,4,5-tetrahydro-benzo[b][1,4]diazepin-1-yl)-N-(4-methoxy-phenyl)-acetamide] — higher, 91%
- COc1ccc(N(C(=O)CN2C(=O)C(CN(C)C(=O)c3ccccc3)C(=O)N(c3ccccc3)c3ccccc32)C(C)C)cc1 (centres unmarked) [Example 28, N-{1-[Isopropyl-(4-methoxy-phenyl)-carbamoylmethyl]-2,4-dioxo-5 phenyl-2,3,4,5-tetrahydro-1H-benzo[b][1,4]diazepin-3-ylmethyl}-N-methyl benzamide] — lower, 3%
- COc1ccc(N(C(=O)CN2C(=O)C(CC(=O)O)(CC(=O)Nc3ccccc3)C(=O)N(c3ccccc3)c3ccccc32)C(C)C)cc1 (centres unmarked) [Example 29, {1-[Isopropyl-(4-methoxy-phenyl)-carbamoylmethyl]-2,4-dioxo-5-phenyl-3-phenylcarbamoylmethyl-2,3,4,5-tetrahydro-1H-benzo[b][1,4]diazepin-3-yl}acetic acid] — higher, 65%
- COc1ccc(N(C(=O)CN2C(=O)C(C)(Cc3n[nH]c4ccccc34)C(=O)N(c3ccccc3)c3ccccc32)C(C)C)cc1 (centres unmarked) [Example 30, 2-[3-(1H-Indazol-3-ylmethyl)-3-methyl-2,4-dioxo-5-phenyl-2,3,4,5-tetrahydro-benzo[b][1,4]diazepin-1-yl]-N-isopropyl-N-(4-methoxy-phenyl) acetamide] — higher, 75%
- COc1ccc(N(C(=O)CN2C(=O)C(Cc3coc4ccccc34)C(=O)N(c3ccccc3)c3ccccc32)C(C)C)cc1 (centres unmarked) [Example 32] — higher, 38%
- COc1ccc(N(C(=O)CN2C(=O)C(C)(Cc3coc4ccccc34)C(=O)N(c3ccccc3)c3ccccc32)C(C)C)cc1 (centres unmarked) [Example 33] — higher, 53%
- COc1ccc(N(C(=O)CN2C(=O)C(Cc3cccc4ccccc34)C(=O)N(c3ccccc3)c3ccccc32)C(C)C)cc1 (centres unmarked) [Example 34, N-Isopropyl-N-(4-methoxy-phenyl)-2-(3-naphthalen-1-ylmethyl-2,4-dioxo-5-phenyl-2,3,4,5-tetrahydro-benzo[b][1,4]diazepin-1-yl) acetamide] — higher, 47%
- COc1ccc(N(C(=O)CN2C(=O)C(C)(Cc3cccc4ccccc34)C(=O)N(c3ccccc3)c3ccccc32)C(C)C)cc1 (centres unmarked) [Example 35, N-Isopropyl-N-(4-methoxy-phenyl)-2-(3-methyl-3-naphthalen-1-ylmethyl-2,4-dioxo-5-phenyl-2,3,4,5-tetrahydro-benzo[b][1,4]diazepin-1-yl) acetamide] — higher, 44%
- COc1ccc(N(C(=O)CN2C(=O)C(Cc3ccc4ccccc4c3)C(=O)N(c3ccccc3)c3ccccc32)C(C)C)cc1 (centres unmarked) [Example 36, N-Isopropyl-N-(4-methoxy-phenyl)-2-(3-naphthalen-2-ylmethyl-2,4-dioxo-5-phenyl-2,3,4,5-tetrahydro-benzo[b][1,4]diazepin-1-yl) acetamide] — lower, 19%
- COc1ccc(N(C(=O)CN2C(=O)C(Cc3csc4ccccc34)C(=O)N(c3ccccc3)c3ccccc32)C(C)C)cc1 (centres unmarked) [Example 37, 2-(3-Benzo[b]thiophen-3-ylmethyl-2,4-dioxo-5-phenyl-2,3,4,5-tetrahydro-benzo[b][1,4]diazepin-1-yl)-N-isopropyl-N-(4-methoxy-phenyl) acetamide] — higher, 46%
- COc1ccc(N(C(=O)CN2C(=O)C(C)(Cc3csc4ccccc34)C(=O)N(c3ccccc3)c3ccccc32)C(C)C)cc1 (centres unmarked) [Example 40, 2-(3-Benzo[b]thiophen-3-ylmethyl-3-methyl-2,4-dioxo-5-phenyl-2,3,4,5-tetrahydro-benzo[b][1,4]diazepin-1-yl)-N-isopropyl-N-(4-methoxy-phenyl) acetamide] — lower, 10%
- COc1ccc(N(C(=O)CN2C(=O)C(C)(CC(=O)Nc3ccccc3)C(=O)N(c3ccc(Cl)cc3)c3ccccc32)C(C)C)cc1 (centres unmarked) [Example 41] — higher, 40%
- COc1ccc(N(C(=O)CN2C(=O)C(Cc3nn(Cc4ccccc4)c4ccccc34)(OC)C(=O)N(c3ccccc3)c3ccccc32)C(C)C)cc1 (centres unmarked) [Example 42, 2-[3-(1-Benzyl-1H-Indazol-3-ylmethyl)-3-methoxy-2,4-dioxo-5-phenyl-2,3,4,5-tetrahydro-benzo[b][1,4]diazepin-1-yl]-N-isopropyl-N-(4-methoxy-phenyl) acetamide] — lower, 16%

Same assay, conditions: Cavia porcellus, 3 × 10^-5 M test compound; expressed as % CCK-induced maximal response; read-out: % Contraction (3 × 10^-5 M)

Point of comparison: `COc1ccc(N(C(=O)CN2C(=O)C(CC(=O)O)(CC(=O)Nc3ccccc3)C(=O)N(c3ccccc3)c3ccccc32)C(C)C)cc1` (centres unmarked) [Example 29, {1-[Isopropyl-(4-methoxy-phenyl)-carbamoylmethyl]-2,4-dioxo-5-phenyl-3-phenylcarbamoylmethyl-2,3,4,5-tetrahydro-1H-benzo[b][1,4]diazepin-3-yl}acetic acid], activation at 30 µM 85%. Against it:
- COc1ccc(N(C(=O)CN2C(=O)C(Cc3c[nH]c4ccccc34)C(=O)N(c3ccccc3)c3ccccc32)C(C)C)cc1 (centres unmarked) [Example 22, 2-[3-(1H-indol-3-ylmethyl)-2,4-dioxo-5-phenyl-2,3,4,5-tetrahydro-benzo[b][1,4]diazepin-1-yl]-N-isopropyl-N-(4-methoxy-phenyl) acetamide] — lower, 71%
- COc1ccc(N(C(=O)CN2C(=O)C(C)(Cc3c[nH]c4ccccc34)C(=O)N(c3ccccc3)c3ccccc32)C(C)C)cc1 (centres unmarked) [Example 23, 2-[3-(1H-indol-3-ylmethyl)-3-methyl-2,4-dioxo-5-phenyl-2,3,4,5-tetrahydro-benzo[b][1,4]diazepin-1-yl]-N-isopropyl-N-(4-methoxy-phenyl) acetamide] — lower, 50%
- COc1ccc(N(C(=O)CN2C(=O)C(C)(Cc3cn(C)c4ccccc34)C(=O)N(c3ccccc3)c3ccccc32)C(C)C)cc1 (centres unmarked) [Example 24, 2-[3-(N-methyl-indol-3-ylmethyl)-3-methyl-2,4-dioxo-5-phenyl-2,3,4,5-tetrahydro-benzo[b][1,4]diazepin-1-yl]-N-isopropyl-N-(4-methoxy-phenyl) acetamide] — lower, 34%
- COc1ccc(N(C(=O)CN2C(=O)C(Cc3nn(Cc4ccccc4)c4ccccc34)C(=O)N(c3ccccc3)c3ccccc32)C(C)C)cc1 (centres unmarked) [Example 27, 2-[3-(1-Benzyl-1H-indazol-3-ylmethyl)-2,4-dioxo-5-phenyl-2,3,4,5-tetrahydro-benzo[b][1,4]diazepin-1-yl]-N-isopropyl-N-(4-methoxy-phenyl) acetamide] — lower, 40%
- COc1ccc(N(C(=O)CN2C(=O)C(C)(Cc3n[nH]c4ccccc34)C(=O)N(c3ccccc3)c3ccccc32)C(C)C)cc1 (centres unmarked) [Example 30, 2-[3-(1H-Indazol-3-ylmethyl)-3-methyl-2,4-dioxo-5-phenyl-2,3,4,5-tetrahydro-benzo[b][1,4]diazepin-1-yl]-N-isopropyl-N-(4-methoxy-phenyl) acetamide] — lower, 70%
